SMILES strings stand for the structures.

The target in assay [1] is Cbl-b (Homo sapiens (Human), UniProt Q13191). The assay is described as follows: Cbl-b LCK Ub TR-FRET assay (Cbl-b Lck HTRF). The conditions noted are these: for IC50: Cbl-b LCK Ub TR-FRET, Example 121; for (fold-selectivity) Cbl-b and C-Cbl Selectivity: ratio C-cbl Lck HTRF IC50 / Cbl-b Lck HTRF IC50. It counts as biochemical. The procedure, abridged:
(§1)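 Signal is read once the detection mix has stood 20 min at ambient temperature. Curves are anchored by DMSO as maximum and by omission of LCK as minimum.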
On the technique in general: TR-FRET usually uses a lanthanide donor and a delayed reading to cut background.

The target in assay [2] is c-Cbl (Homo sapiens (Human), UniProt P22681). The assay is described as follows: C-Cbl LCK Ub TR-FRET assay (C-cbl Lck HTRF). It counts as biochemical. The procedure, abridged: as §1
The target in assay [3] is Human Cbl-b (residues 40-426) (Homo sapiens (Human), UniProt Q13191). The assay is described as follows: Cbl-b SPR assay. The class given is binding. To be noted: for Fold of selectivity: C-cbl SPR Kd vs Cbl-b SPR Kd; for Kd: SPR, 20° C. The procedure, abridged: (§2)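 Where a chaser compound was used, % compound bound was calculated as (1−(RUT/RUT0))*100 relative to a prior chaser injection and fitted to a single exponential for kd. The single cycle titration (max 500 nM) was then fitted with kd held fixed.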
(In general: In SPR one partner is held on a chip, and binding of the other changes the refractive index at the surface.)

In assay [4] the target is c-Cbl (residues 47-435) (Homo sapiens (Human), UniProt P22681). The assay is described as follows: c-Cbl SPR assay. It counts as binding. To be noted: 20° C. The procedure, abridged: as §2
Sequence of c-Cbl (residues 47-435) (P22681 47-435): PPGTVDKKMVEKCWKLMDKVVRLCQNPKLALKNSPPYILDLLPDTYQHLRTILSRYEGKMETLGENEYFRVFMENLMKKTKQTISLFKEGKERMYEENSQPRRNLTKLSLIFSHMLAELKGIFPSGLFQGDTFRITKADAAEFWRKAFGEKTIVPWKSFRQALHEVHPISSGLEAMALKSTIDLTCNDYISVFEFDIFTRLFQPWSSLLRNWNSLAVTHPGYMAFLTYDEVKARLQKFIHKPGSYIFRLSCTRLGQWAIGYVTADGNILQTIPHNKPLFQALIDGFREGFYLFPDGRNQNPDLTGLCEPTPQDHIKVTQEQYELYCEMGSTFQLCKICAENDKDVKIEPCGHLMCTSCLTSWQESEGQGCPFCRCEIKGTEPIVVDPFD

Sequence of c-Cbl (P22681 47-435): as above
Sequence of Human Cbl-b (residues 40-426) (Q13191 40-426): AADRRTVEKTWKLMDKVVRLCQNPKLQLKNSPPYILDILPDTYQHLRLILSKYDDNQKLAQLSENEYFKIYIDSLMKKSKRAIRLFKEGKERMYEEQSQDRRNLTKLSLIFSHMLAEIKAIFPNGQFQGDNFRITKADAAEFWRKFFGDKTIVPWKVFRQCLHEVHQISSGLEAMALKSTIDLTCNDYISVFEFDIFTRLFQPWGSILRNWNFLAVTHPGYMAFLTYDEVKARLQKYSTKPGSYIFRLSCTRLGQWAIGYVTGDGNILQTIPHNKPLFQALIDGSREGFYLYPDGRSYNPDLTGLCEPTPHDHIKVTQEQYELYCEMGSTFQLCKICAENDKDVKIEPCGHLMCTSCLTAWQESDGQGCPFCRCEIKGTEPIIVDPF
Sequence of Cbl-b (Q13191 40-426): as above

As usually defined, the IC50 is the concentration at which inhibition is half-maximal. By Kd is commonly meant the constant that tells how readily two partners part at equilibrium. The low end stands for a tighter complex, the high end for a looser complex. In the case of `COCC1(NCc2cc3c(c(C(F)(F)F)c2)CN(c2cccc([C@]4(c5nncn5C)C[C@H](OC)C4)c2)C3=O)CC1` [Compound 487, 2-(3-((1r,3r)-3-methoxy-1-(4-methyl-4H-1,2,4-triazol-3-yl)cyclobutyl)phenyl)-6-(((1-(methoxymethyl)cyclopropyl)amino)methyl)-4-(trifluoromethyl)isoindolin-1-one], in assay [1], the IC50 stood at 19 nM; the “(fold-selectivity) Cbl-b and C-Cbl Selectivity” value is listed as 7.4x. The same compound yielded an IC50 in assay [2] of 150 nM. Moreover, in assay [3], the Fold of selectivity amounted to 41× and the Kd worked out at 4.9 nM. The compound further displayed a Kd in assay [4] of 210 nM.
In the case of `CO[C@H]1C[C@](c2cccc(N3Cc4c(cc(CNC5CC(C)(C)C5)cc4C(F)(F)F)C3=O)c2)(c2nncn2C)C1` [Compound 488, 6-(((3,3-dimethylcyclobutyl)amino)methyl)-2-(3-((1r,3r)-3-methoxy-1-(4-methyl-4H-1,2,4-triazol-3-yl)cyclobutyl)phenyl)-4-(trifluoromethyl)isoindolin-1-one], in assay [1], the IC50 was found to be 5.8 nM; the “(fold-selectivity) Cbl-b and C-Cbl Selectivity” value turned out to be 2.4x. The compound also returned an IC50 in assay [2] of 14 nM. In assay [3], the Fold of selectivity is recorded as 13× and the affinity, expressed as Kd, was 1 nM. The compound further returned a dissociation constant Kd in assay [4] of 13 nM.
As for `CO[C@H]1C[C@](c2cccc(N3Cc4c(cc(CNCC5(CO)CCC5)cc4C(F)(F)F)C3=O)c2)(c2nncn2C)C1` [Compound 489, 6-((((1-(hydroxymethyl)cyclobutyl)methyl)amino)methyl)-2-(3-((1r,3r)-3-methoxy-1-(4-methyl-4H-1,2,4-triazol-3-yl)cyclobutyl)phenyl)-4-(trifluoromethyl)isoindolin-1-one], in assay [1], the 50% inhibitory concentration (IC50) is 14 nM; the “(fold-selectivity) Cbl-b and C-Cbl Selectivity” value is listed as 5.3x. Moreover, the IC50 in assay [2] is 74 nM. In assay [3], the Fold of selectivity worked out at 7.8× and binding was characterised by a dissociation constant (Kd) of 6.2 nM. For the same compound, the Kd in assay [4] stood at 48 nM.
For `CO[C@H]1C[C@](c2cccc(N3Cc4c(cc(CN5CCCCCC5)cc4C(F)(F)F)C3=O)c2)(c2nncn2C)C1` [Compound 490, 6-(azepan-1-ylmethyl)-2-(3-((1r,3r)-3-methxoy-1-(4-methyl-4H-1,2,4-triazol-3-yl)cyclobutyl)phenyl)-4-(trifluoromethyl)isoindolin-1-one], in assay [1], half-maximal inhibition (IC50) was put at 55 nM; the “(fold-selectivity) Cbl-b and C-Cbl Selectivity” value is on record as 5.0 x. The IC50 in assay [2] was 270 nM. In assay [3], this compound came in with a Fold of selectivity of 14× and an equilibrium dissociation constant (Kd) of 32 nM. Moreover, binding in assay [4] was put at a Kd of 480 nM.
In the case of `CO[C@H]1C[C@](c2cccc(N3Cc4c(cc(CNCCOC(F)F)cc4C(F)(F)F)C3=O)c2)(c2nncn2C)C1` [Compound 491, 6-(((2-(difluoromethoxy)ethyl)amino)methyl)-2-(3-((1r,3r)-3-methoxy-1-(4-methyl-4H-1,2,4-triazol-3-yl)cyclobutyl)phenyl)-4-(trifluoromethyl)isoindolin-1-one], in assay [1], the IC50 is 8.4 nM; the “(fold-selectivity) Cbl-b and C-Cbl Selectivity” value is listed as 4.3x. The same compound had a half-maximal inhibitory concentration (IC50) in assay [2] of 36 nM. Also, in assay [3], the Fold of selectivity is on record as 17× and the Kd is 2.9 nM. The same compound displayed a Kd in assay [4] of 48 nM.
As for `CO[C@H]1C[C@](c2cccc(N3Cc4c(cc(CN[C@H]5[C@@H]6COC[C@@H]65)cc4C(F)(F)F)C3=O)c2)(c2nncn2C)C1` [Compound 492, 6-(((1R,5S,6r)-3-oxabicyclo[3.1.0]hexan-6-ylamino)methyl)-2-(3-((1r,3R)-3-methoxy-1-(4-methyl-4H-1,2,4-triazol-3-yl)cyclobutyl)phenyl)-4-(trifluoromethyl)isoindolin-1-one], the IC50 in assay [1] stood at 14 nM; in assay [2], 87 nM. For the same compound, the “(fold-selectivity) Cbl-b and C-Cbl Selectivity” value in assay [1] worked out at 6.2x. In assay [3], this compound displayed a Fold of selectivity of 15×. Besides, the Kd turned out to be 12 nM in assay [3] and 180 nM in assay [4].
As for `COCCC1(NCc2cc3c(c(C(F)(F)F)c2)CN(c2cccc([C@]4(c5nncn5C)C[C@H](OC)C4)c2)C3=O)CCC1` [Compound 493, 2-(3-((1r,3r)-3-methoxy-1-(4-methyl-4H-1,2,4-triazol-3-yl)cyclobutyl)phenyl)-6-(((1-(2-methoxyethyl)cyclobutyl)amino)methyl)-4-(trifluoromethyl)isoindolin-1-one], the 50% inhibitory concentration (IC50) in assay [1] is 28 nM; in assay [2], 230 nM. Also, the “(fold-selectivity) Cbl-b and C-Cbl Selectivity” value in assay [1] was 8.5x. For the same compound, the Fold of selectivity in assay [3] was determined as 7.8×. Also, the results for the equilibrium dissociation constant (Kd) in assay [3] and in assay [4] were 18 nM and 140 nM, respectively.
For `CO[C@H]1C[C@](c2cccc(N3Cc4c(cc(CNC5CC(C(F)F)C5)cc4C(F)(F)F)C3=O)c2)(c2nncn2C)C1` (stereo partly drawn) [Compound 494, 6-(((3-(difluoromethyl)cyclobutyl)amino)methyl)-2-(3-((1r,3r)-3-methoxy-1-(4-methyl-4H-1,2,4-triazol-3-yl)cyclobutyl)phenyl)-4-(trifluoromethyl)isoindolin-1-one], the half-maximal inhibitory concentration (IC50) in assay [1] amounted to 8.3 nM; in assay [2], 25 nM. In addition, the “(fold-selectivity) Cbl-b and C-Cbl Selectivity” value in assay [1] worked out at 3.1x. In assay [3], this compound had a Fold of selectivity of 11×. Moreover, the dissociation constant (Kd) was determined as 1.8 nM in assay [3] and 20 nM in assay [4].
In the case of `COCC1(NCc2cc3c(c(C(F)(F)F)c2)CN(c2cccc([C@]4(c5nncn5C)C[C@H](OC)C4)c2)C3=O)CCC1` [Compound 495, 2-(3-((1r,3r)-3-methoxy-1-(4-methyl-4H-1,2,4-triazol-3-yl)cyclobutyl)phenyl)-6-(((1-(methoxymethyl)cyclobutyl)amino)methyl)-4-(trifluoromethyl)isoindolin-1-one], in assay [1], the IC50 was 18 nM; the “(fold-selectivity) Cbl-b and C-Cbl Selectivity” value is reported as 6.7x. Also, in assay [2], the IC50 came out at 110 nM. Besides, in assay [3], the Fold of selectivity turned out to be 12× and the equilibrium dissociation constant (Kd) is 8.5 nM. The compound further gave a dissociation constant Kd in assay [4] of 110 nM.
For the compound `CO[C@H]1C[C@](c2cccc(N3Cc4c(cc(CNCC5(CF)CC5)cc4C(F)(F)F)C3=O)c2)(c2nncn2C)C1` [Compound 496, 6-((((1-(fluoromethyl)cyclopropyl)methyl)amino)meth-yl)-2-(3-((1r,3r)-3-methoxy-1-(4-methyl-4H-1,2,4-triazol-3-yl)cyclobutyl)phenyl)-4-(trifluoromethyl)isoindolin-1-one], the IC50 came to 17 nM in assay [1] and 87 nM in assay [2]. Also, the “(fold-selectivity) Cbl-b and C-Cbl Selectivity” value in assay [1] was determined as 5.2x. Besides, the Fold of selectivity in assay [3] was determined as 12×. Moreover, the equilibrium dissociation constant (Kd) came out at 6.1 nM in assay [3] and 73 nM in assay [4].
Regarding `CO[C@H]1C[C@](c2cccc(N3Cc4c(cc(CNC5CC(C)(F)C5)cc4C(F)(F)F)C3=O)c2)(c2nncn2C)C1` (stereo partly drawn) [Compound 497, 6-(((3-fluoro-3-methylcyclobutyl)amino)methyl)-2-(3-((1r,3r)-3-methoxy-1-(4-methyl-4H-1,2,4-triazol-3-yl)cyclobutyl)phenyl)-4-(trifluoromethyl)isoindolin-1-one], in assay [1], the IC50 came out at 5.2 nM; the “(fold-selectivity) Cbl-b and C-Cbl Selectivity” value turned out to be 4.7x. The compound also came in with a 50% inhibitory concentration (IC50) in assay [2] of 24 nM. In assay [3], the Fold of selectivity came out at 14× and binding was characterised by a dissociation constant (Kd) of 1.9 nM. This compound also had a Kd in assay [4] of 26.6 nM.
For `CO[C@H]1C[C@](c2cccc(N3Cc4c(cc(CNC5CC6CC6C5)cc4C(F)(F)F)C3=O)c2)(c2nncn2C)C1` (stereo partly drawn) [Compound 498, 6-((bicyclo[3.1.0]hexan-3-ylamino)methyl)-2-(3-((1r,3r)-3-methoxy-1-(4-methyl-4H-1,2,4-triazol-3-yl)cyclobutyl)phenyl)-4-(trifluoromethyl)isoindolin-1-one], the 50% inhibitory concentration (IC50) in assay [1] turned out to be 4.1 nM; in assay [2] it was 15 nM. Besides, the “(fold-selectivity) Cbl-b and C-Cbl Selectivity” value in assay [1] amounted to 3.6x. In addition, the Fold of selectivity in assay [3] was found to be 16×. Moreover, the Kd in assay [3] is 0.8 nM; in assay [4] it was 13 nM.
Turning to `CO[C@H]1C[C@](c2cccc(N3Cc4c(cc(CNCCC5CCC5(F)F)cc4C(F)(F)F)C3=O)c2)(c2nncn2C)C1` (stereo partly drawn) [Compound 499, 6-(((2-(2,2-difluorocyclobutyl)ethyl)amino)methyl)-2-(3-((1r,3r)-3-methoxy-1-(4-methyl-4H-1,2,4-triazol-3-yl)cyclobutyl)phenyl)-4-(trifluoromethyl)isoindolin-1-one], the IC50 stood at 16 nM in assay [1] and 78 nM in assay [2]. The “(fold-selectivity) Cbl-b and C-Cbl Selectivity” value in assay [1] turned out to be 5.0x. The compound further displayed a Fold of selectivity in assay [3] of 19×. In addition, the dissociation constant (Kd) in assay [3] was 3.7 nM; in assay [4] it was 79 nM.
In the case of `CO[C@H]1C[C@](c2cccc(N3Cc4c(cc(CNC5C[C@@H]6C[C@H]5CO6)cc4C(F)(F)F)C3=O)c2)(c2nncn2C)C1` (stereo partly drawn) [Compound 500, 6-((2-oxabicyclo[2.2.1]heptan-5-ylamino)methyl)-2-(3-((1r,3r)-3-methoxy-1-(4-methyl-4H-1,2,4-triazol-3-y)cyclobutyl)phenyl)-4-(trifluoromethyl)isoindolin-1-one], in assay [1], the half-inhibitory concentration (IC50) was determined as 16 nM; the “(fold-selectivity) Cbl-b and C-Cbl Selectivity” value is given as 5.3x. For the same compound, in assay [2], the concentration for half-maximal inhibition (IC50) came to 85 nM. In assay [3], this compound registered a Fold of selectivity of 12× and a Kd of 10 nM. This compound had a Kd in assay [4] of 120 nM.
